Results: the supplement of paper PMC4314810
± gives the standard deviation of the averaged measurements.

system: MCF7; test: HRG-induced Akt activation (dPAkt = log2 pAkt/Akt HRG-stimulated minus log2 pAkt/Akt basal) (log2 ratio difference); higher = stronger HRG-induced Akt(T308) phosphorylation; conditions: miRNA mimic concentration 10 nM; time after transfection 72 h; heregulin 10 ng/ml; stimulation time 1 h
Procedure, shortened: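 MCF7 cells ([…], 96-well plates) were transfected with a library of 879 miRNA mimics at 10 nM final using Lipofectamine RNAiMax, in two biological replicates. After 72 h, cells were stimulated with 10 ng/ml heregulin-beta1 for 1 h or left unstimulated. They were fixed with 4% PFA, and phospho-Akt(T308) and total Akt were read by In-Cell Western on an Odyssey. Signals were corrected for column-wise fixation decay, and HRG-induced Akt activation is log2(pAkt/Akt) stimulated minus unstimulated, averaged over replicates.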

In order of falling “HRG-induced Akt activation (log2)” value:
1. UGAGAACCACGUCUGCUCUGAG  2.16 ± 0.27
2. UUGGGGAAACGGCCGCUGAGUG  2.08 ± 0.097
3. AGGGUGUUUCUCUCAUCUCU  2.04 ± 0.21
4. CACUGGCUCCUUUCUGGGUAGA  2.02 ± 0.43
5. UCACUGUUCAGACAGGCGGA  2.02 ± 0.07
6. UGGCAGUGUCUUAGCUGGUUGU  1.99 ± 0.091
7. GGGAGCCAGGAAGUAUUGAUGU  1.82 ± 0.069
8. UUGAGAAUGAUGAAUCAUUAGG  1.82 ± 0.5
9. UAAUCCUUGCUACCUGGGUGAGA  1.79 ± 0.047
10. GAAAUCAAGCGUGGGUGAGACC  1.77 ± 0.15
11. AUAAGACGAACAAAAGGUUUGU  1.75 ± 0.072
12. CUUUCAGUCGGAUGUUUGCAGC  1.75 ± 0.2
13. CAAAGAAUUCUCCUUUUGGGCU  1.74 ± 0.013
14. ACACAGGGCUGUUGUGAAGACU  1.74 ± 0.1
15. CAAAGGUAUUUGUGGUUUUUG  1.74 ± 0.066
16. UGCUAUGCCAACAUAUUGCCAU  1.72 ± 0.27
17. ACAGUAGUCUGCACAUUGGUUA  1.692 ± 0.0034
18. CAAUCACUAACUCCACUGCCAU  1.69 ± 0.37
19. GCAGUCCAUGGGCAUAUACAC  1.66 ± 0.12
20. UAGCAGCGGGAACAGUUCUGCAG  1.61 ± 0.1
21. GUGAGUCUCUAAGAAAAGAGGA  1.56 ± 0.38
22. UUUUGCACCUUUUGGAGUGAA  1.55 ± 0.13
23. AUCACAUUGCCAGGGAUUACC  1.54 ± 0.03
24. CCUGUUCUCCAUUACUUGGCUC  1.53 ± 0.36
25. UCUUGUGUUCUCUAGAUCAGU  1.53 ± 0.22
26. GGUUUGGUCCUAGCCUUUCUA  1.47 ± 0.2
27. ACUGAUUUCUUUUGGUGUUCAG  1.47 ± 0.082
28. GAGGGUUGGGUGGAGGCUCUCC  1.47 ± 0.36
29. UAAAGUAAAUAUGCACCAAAA  1.45 ± 0.18
30. GUGCAUUGUAGUUGCAUUGCA  1.43 ± 0.074
31. AUGACCUAUGAAUUGACAGAC  1.43 ± 0.063
32. UUCAACGGGUAUUUAUUGAGCA  1.34 ± 0.24
33. GGAGACGCGGCCCUGUUGGAGU  1.33 ± 0.052
34. CCUAUUCUUGGUUACUUGCACG  1.29 ± 0.1
35. GCCCCUGGGCCUAUCCUAGAA  1.25 ± 0.56
36. UUAAGACUUGCAGUGAUGUUU  1.25 ± 0.66
37. AAAAACUGUAAUUACUUUU  1.15 ± 0.3
38. UAAGGCACGCGGUGAAUGCC  1.15 ± 0.41
39. AAGGCAGGGCCCCCGCUCCCC  1.14 ± 0.77
40. CAAAGUUUAAGAUCCUUGAAGU  1.08 ± 0.53
41. CUGCGCAAGCUACUGCCUUGCU  1.07 ± 0.26
42. UCACACCUGCCUCGCCCCCC  1.05 ± 0.31
43. ACUGCUGAGCUAGCACUUCCCG  1.04 ± 0.26
44. UAACACUGUCUGGUAACGAUGU  1.04 ± 0.078
45. CAGUGCAAUAGUAUUGUCAAAGC  1.02 ± 0.51
46. ACUCUAGCUGCCAAAGGCGCU  1.02 ± 0.67
47. CAAAAACCACAGUUUCUUUUGC  0.997 ± 0.23
48. UGGAGAGAAAGGCAGUUCCUGA  0.965 ± 0.16
49. AAAGUGCUUCCUUUUAGAGGG  0.928 ± 0.12
50. CAAAGUGCCUCCCUUUAGAGUG  0.831 ± 0.84
51. UUCCCUUUGUCAUCCUAUGCCU  0.793 ± 0.043
52. AAAGUGCAUCCUUUUAGAGUGU  0.756 ± 0.11
53. UAAGUGCUUCCAUGCUU  0.459 ± 0.22
54. AAAGUGCAUCCUUUUAGAGGUU  0.411 ± 0.64
